The subject of one series is fungal infection. The experiment in a line: Antifungal activity in in vivo tests in mice. More on the design: species or system mouse. As to conditions: for antifungal activity in in vivo tests in mice versus existing antifungal agents: versus itraconazole, fluconazole and azoles of US 5,039,676 and WO 93/09114. The protocol:
(§1) The in vitro anti-fungal activities of the compounds of the formulas II, III and IV against forty-one species of Candida, thirty species of Aspergillus and nine species of Cryptococcus are summarized in Table 5. […] This Aspergillus pulmonary infection model in mice was performed in accordance with the procedures of David Loebenberg et al. entitled "In vitro and in vivo activity of Sch 42427, the active enantiomer of the antifungal agent Sch 39304" published in Antimicrobial Agents and Chemotherapy (1992), Vol. 36, pp. 498-501.

A further series relates to Candida species. The series can be described thus: In vitro antifungal activity against Candida species. Type of series: cell-based. The protocol:
as §1
(§2) In Vitro Antifungal Activity(mcg/mL)
(§3) ^3 In vitro activity measured in accordance with procedures for NCCLS

A further series deals with Aspergillus species. The series can be described thus: In vitro antifungal activity against Aspergillus species. Type of series: cell-based. Conditions: Aspergillus species (n = 30); Espinel-Ingroff's methodology. As to the method: as §1, §2
^2 In vitro activity against Aspergillus measured in accordance with
EspinelIngroff's Methodology

Another series has as its system Cryptococcus neoformans. The series can be described thus: In vitro antifungal activity against Cryptococcus neoformans. The class given is cell-based. The protocol:
as §1, §2, §3

Series [1] in a line: In vivo hydrolysis of prodrug. As to conditions: II to III; III to IV. An excerpt: The compound of formula II hydrolyzes in vivo to the compound of formula III; III then hydrolyzes in vivo to the compound of formula IV.
The test system of series [2] is Candida, Aspergillus and Cryptococcus. The experiment in a line: In vitro antifungal activity, comparison of geometric mean MICs. The class given is cell-based. As to conditions: comparison among II, III and IV. The protocol: as §1
In the next series the test system is Candida albicans. The experiment in a line: Mice with a systemic Candida albicans infection. The class given is in vivo, mouse; Candida albicans. Conditions: 10 mg/kg.
A short description of series [3]: Pharmacokinetic studies in human tissues and serum (metabolism). Type of series: in vitro ADME.
The test system of a further series is Aspergillus fumigatus. The experiment in a line: Aspergillus pulmonary infection model in mice. Type of series: in vivo, mouse; Aspergillus fumigatus. Conditions: 10 mg/kg. The protocol:
as §1

The nature of series [4]: Plasma pharmacokinetics of formula IV in mice after intravenous di-NMG salt. The class given is in vivo, mouse (male Charles River). On the set-up: AUC (of formula IV), time zero to 24 hrs: unit not given here. Conditions: for AUC (of formula IV), time zero to 24 hrs: Table 3, mouse plasma, IV 20 mg/kg formula IV equivalent of di-NMG salt. The protocol:
Concentrations of the compound of formula IV in pooled mouse^1
plasma (2 mice/pool) following intravenous administration of a 20
mg/kg of the compound of formula IV dose equivalent of the di-NMG
salt of the compound of this invention represented by the formula II in
^1 Male Charles River mice having an average body weight of 18-20 g
mg/kg of compound of formula IV dose equivalent of the di-NMG
salt of the compound of the prior art represented by formula V
PHARMACOKINETIC ("PK") PARAMETERS OF THE
COMPOUND OF FORMULA IV IN MOUSE^1 PLASMA
FOLLOWING INTRAVENOUS ADMINISTRATION OF 20 MG/KG
OF COMPOUND OF FORMULA IV DOSE EQUIVALENT OF THE
DI-NMG SALTS OF THE COMPOUNDS OF FORMULAS II AND V
IN STERILE WATER TO MICE.

Another series can be described thus: Water solubility. Type of series: physicochemical.
Setting [5] is: read-out: G mean MICs (geometric mean MIC).

Molecules are shown by their SMILES. Where two headings read alike, the source gives them in different places.

With `CC[C@@H]([C@H](C)OC(=O)CCCO)n1ncn(-c2ccc(N3CCN(c4ccc(OC[C@@H]5CO[C@@](Cn6cncn6)(c6ccc(F)cc6F)C5)cc4)CC3)cc2)c1=O` [Formula III, 2(S)-[4-{4-{4-{4-[[(R-Cis)-2-(2,4-difluorophenyl)-tetrahydro-2-(1H-1,2,4-triazol-1-ylmethyl)-4-furanyl]methoxy]phenyl]-1-piperazinyl]phenyl]-4,5-dihydro-5-oxo-1H-1,2,4-triazol-1-yl]-1-(S)-methylbutyl-4-hydroxy-butanoate], in the series with fungal infection, the “antifungal activity in in vivo tests in mice versus existing antifungal agents” value is listed as “unexpectedly better than that of existing antifungal agents”. Besides, the MIC (in general, the least concentration at which growth counts as inhibited) was 0.3 µg/mL in the series with Candida species (setting [5]); 0.0156 to 8 µg/mL in the series on Candida species (read-out: MIC Range); 0.0313 to 2 µg/mL in the series on Aspergillus species; 0.09 µg/mL with Cryptococcus neoformans (setting [5]); 0.0156 to 0.5 µg/mL in the series on Cryptococcus neoformans (read-out: MIC Range). In addition, in [1], the “site of hydrolysis in vivo” value was “primarily in the serum”.
On to `CC[C@@H]([C@H](C)OC(=O)CCCOP(=O)(O)O)n1ncn(-c2ccc(N3CCN(c4ccc(OC[C@@H]5CO[C@@](Cn6cncn6)(c6ccc(F)cc6F)C5)cc4)CC3)cc2)c1=O` [Formula II, 5-[[2(S)-[4-[4-[4-[4-[[(R-cis)-5-(2,4-difluorophenyl)-tetrahydro-5-(1H-1,2,4-triazol-1-ylmethyl)-3-furanyl]methoxy]phenyl]-1-piperazinyl]phenyl]-4,5-dihydro-5-oxo-1H-1,2,4-triazol-1-yl]-1(S)-methylbutyl]oxy]-5-oxobutyl phosphate], for which the “in vitro antifungal activity, comparison of geometric mean MICs” value in series [2] is given as “much lower”. Besides, the “survival at day 9” value in the series on Candida albicans was found to be 100%. Moreover, in the series on fungal infection (systemic Candida albicans and pulmonary Aspergillus fumigatus), the “in vivo activity in two mice models” value is recorded as “good in vivo activity”. The MIC in the series with Candida species (setting [5]) is 7.5 µg/mL; in the series with Cryptococcus neoformans (setting [5]), 1.9 µg/mL; in the series on Cryptococcus neoformans (read-out: MIC Range), 0.125 to 32 µg/mL. Also, in [3], the metabolism entry is given as “metabolized to the compound of formula IV via the metabolite represented by formula III”. In addition, the survival with Aspergillus fumigatus is 70%. Further, in series [1], the “site of hydrolysis in vivo” value was “primarily in the serum and in tissues (liver, lung and kidney)”.
Turning to `CC[C@@H]([C@H](C)OC(=O)CCCCOP(=O)(O)O)n1ncn(-c2ccc(N3CCN(c4ccc(OC[C@@H]5CO[C@@](Cn6cncn6)(c6ccc(F)cc6F)C5)cc4)CC3)cc2)c1=O` [Formula V.2 NMG, reference compound], the “AUC (of formula IV), time zero to 24 hrs” value in series [4] amounted to 36.7.
As to `CC[C@@H]([C@H](C)OC(=O)CCCOP(=O)(O)O)n1ncn(-c2ccc(N3CCN(c4ccc(OC[C@@H]5CO[C@@](Cn6cncn6)(c6ccc(F)cc6F)C5)cc4)CC3)cc2)c1=O` [Formula II.2 NMG], the “AUC (of formula IV), time zero to 24 hrs” value in series [4] was 79.1. Also, the “blood levels of the compound of formula IV” value in series [4] (mice, intravenous, in water) is “superior blood levels”. Also, in series [4] (mice, intravenous, side-by-side comparison), the “pharmacokinetic parameters of formula IV versus those from di-NMG salt of formula V” value was “unexpectedly superior”. Besides, the water solubility result in the series “Water solubility” was “water soluble”.
In the case of `CC[C@@H]([C@H](C)O)n1ncn(-c2ccc(N3CCN(c4ccc(OC[C@@H]5CO[C@@](Cn6cncn6)(c6ccc(F)cc6F)C5)cc4)CC3)cc2)c1=O` [Formula IV, reference compound], the “antifungal activity in in vivo tests in mice versus existing antifungal agents” value with fungal infection is on record as “unexpectedly better than that of existing antifungal agents”. Also, the minimum inhibitory concentration (MIC) in the series on Candida species (setting [5]) is 0.2 µg/mL; with Candida species (read-out: MIC Range), 0.0156 to 8 µg/mL; in the series with Aspergillus species, 0.0156 to 1 µg/mL; in the series on Cryptococcus neoformans (setting [5]), 0.04 µg/mL; in the series on Cryptococcus neoformans (read-out: MIC Range) it was 0.015 to 0.5 µg/mL.

The values above are taken from US6043245A, “Tetrahydrofuran antifungal phosphate” (Schering Corporation, priority 1998, dated 2000).
